# Values joined by “and” are separate entries in the source; they are usually repeats but may differ in a detail not shown here. Identical values can stand only once. Inconclusive results and toxic doses are left out.
# Tested on: BDF1 mice, P388 leukemia ip, median survival T/C
# Test: NCI In Vivo Anticancer Drug Screen. Data for tumor model P388 Leukemia (intraperitoneal) in B6D2F1 (BDF1) mice
# Conditions: endpoint: median survival time, higher = longer survival
# Procedure, shortened: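 Steps: implant the tumour, treat one group with compound and another with vehicle, record survival, then divide treated by control.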
# [1] = dose: 100.0 mg/kg/injection, schedule: Q04DX003 (ip), vehicle: saline with Tween-80
# [2] = dose: 200.0 mg/kg/injection, schedule: Q04DX003 (ip), vehicle: saline with Tween-80
# [3] = dose: 400.0 mg/kg/injection, schedule: Q04DX003 (ip), vehicle: saline with Tween-80
# [4] = dose: 50.0 mg/kg/injection, schedule: Q01DX009 (ip), vehicle: saline with Tween-80
# [5] = dose: 100.0 mg/kg/injection, schedule: Q01DX009 (ip), vehicle: saline with Tween-80
# [6] = dose: 200.0 mg/kg/injection, schedule: Q01DX009 (ip), vehicle: saline with Tween-80
# [7] = dose: 100.0 mg/kg/injection, schedule: Q01DX001 (ip), vehicle: Klucel (hydroxypropylcellulose) (HPC)
# [8] = dose: 200.0 mg/kg/injection, schedule: Q01DX001 (ip), vehicle: Klucel (hydroxypropylcellulose) (HPC)
# [9] = dose: 400.0 mg/kg/injection, schedule: Q01DX001 (ip), vehicle: Klucel (hydroxypropylcellulose) (HPC)
# [10] = dose: 12.5 mg/kg/injection, schedule: Q01DX009 (ip), vehicle: water
# [11] = dose: 25.0 mg/kg/injection, schedule: Q01DX009 (ip), vehicle: water
# [12] = dose: 12.5 mg/kg/injection, schedule: Q01DX009 (ip), vehicle: saline with Tween-80
# [13] = dose: 25.0 mg/kg/injection, schedule: Q01DX009 (ip), vehicle: saline with Tween-80
# [14] = dose: 100.0 mg/kg/injection, schedule: Q04DX003 (ip), vehicle: other
# [15] = dose: 100.0 mg/kg/injection, schedule: Q01DX009 (ip), vehicle: Klucel (hydroxypropylcellulose) (HPC)
# [16] = dose: 200.0 mg/kg/injection, schedule: Q01DX009 (ip), vehicle: Klucel (hydroxypropylcellulose) (HPC)
structure (smiles),measurement,setting,value
Cc1ccc(NS(=O)(=O)c2ccc([N+](=O)[O-])cc2)c(C)c1,T/C,[1],100 % of control
same,T/C,[2],104 % of control
same,T/C,[3],104 % of control
CSC1SCC2C(=O)N(C)C(C(C)C)C(=O)OCC(NC(=O)c3cnc4ccccc4n3)C(=O)NC(C)C(=O)N(C)C1C(=O)N(C)C(C(C)C)C(=O)OCC(NC(=O)c1cnc3ccccc3n1)C(=O)NC(C)C(=O)N2C (stereo unspecified),T/C,"dose: 0.4 micrograms/kg/injection, schedule: Q01DX009 (ip), vehicle: saline with Tween-80",86 % of control
same,T/C,"dose: 0.9 micrograms/kg/injection, schedule: Q01DX009 (ip), vehicle: saline with Tween-80",89 % of control
same,T/C,"dose: 1.9 micrograms/kg/injection, schedule: Q01DX009 (ip), vehicle: saline with Tween-80",112 % of control
same,T/C,"dose: 3.8 micrograms/kg/injection, schedule: Q01DX009 (ip), vehicle: saline with Tween-80",96 % of control
same,T/C,"dose: 5.0 micrograms/kg/injection, schedule: Q01DX010 (ip), vehicle: saline",118 % of control
same,T/C,"dose: 20.0 micrograms/kg/injection, schedule: Q01DX010 (ip), vehicle: saline",95 % of control
same,T/C,"dose: 30.0 micrograms/kg/injection, schedule: Q01DX009 (ip), vehicle: saline with Tween-80",175 % of control
CCOc1ncc([N+](=O)[O-])c(OCC)n1,T/C,[4],101 % of control
same,T/C,[5],106 % of control
same,T/C,[6],108 % of control
same,T/C,"dose: 400.0 mg/kg/injection, schedule: Q01DX009 (ip), vehicle: saline with Tween-80",106 % of control
CN(C)C(=O)c1cccc(COc2ccc([N+](=O)[O-])cc2Cl)c1,T/C,[7],109 % of control
same,T/C,"dose: 132.0 mg/kg/injection, schedule: Q01DX009 (ip), vehicle: saline sonified",91 % of control
same,T/C,[8],109 % of control
same,T/C,"dose: 200.0 mg/kg/injection, schedule: Q01DX009 (ip), vehicle: saline sonified",87 % of control
same,T/C,"dose: 300.0 mg/kg/injection, schedule: Q01DX009 (ip), vehicle: saline sonified",87 % of control
same,T/C,[9],104 % of control
COC(=O)CCC1(c2ccccc2)CCCC1=O (stereo unspecified),T/C,[10],103 % of control
same,T/C,[11],92 % of control
same,T/C,"dose: 100.0 mg/kg/injection, schedule: Q01DX009 (ip), vehicle: water",94 % of control
same,T/C,"dose: 200.0 mg/kg/injection, schedule: Q04DX003 (ip), vehicle: water",96 % of control
same,T/C,"dose: 300.0 mg/kg/injection, schedule: Q04DX003 (ip), vehicle: water",100 % of control
same,T/C,"dose: 400.0 mg/kg/injection, schedule: Q04DX003 (ip), vehicle: water",91 % of control
CN(C)c1ccc(C(=C2C=CC(=[N+](C)C)C=C2)c2ccc(N(C)C)cc2)cc1,T/C,"dose: 0.78 mg/kg/injection, schedule: Q01DX009 (ip), vehicle: saline",107 % of control
same,T/C,"dose: 1.56 mg/kg/injection, schedule: Q01DX009 (ip), vehicle: saline",121 % of control
same,T/C,"dose: 1.56 mg/kg/injection, schedule: Q04DX003 (ip), vehicle: saline",122 % of control
same,T/C,"dose: 3.12 mg/kg/injection, schedule: Q04DX003 (ip), vehicle: saline",86 % of control
CCOP(=S)(OCC)Sc1cnn(C)c(=O)c1SCC,T/C,"dose: 50.0 mg/kg/injection, schedule: Q01DX005 (ip), vehicle: saline with Tween-80",100 % of control
same,T/C,"dose: 100.0 mg/kg/injection, schedule: Q01DX005 (ip), vehicle: saline with Tween-80",99 % of control
same,T/C,"dose: 200.0 mg/kg/injection, schedule: Q01DX005 (ip), vehicle: saline with Tween-80",100 % of control
Nc1nc(N)c2cc(S(=O)(=O)c3ccc(Cl)c(Cl)c3)ccc2n1,T/C,[4],100 % of control
same,T/C,[5],91 % of control
same,T/C,[6],102 % of control
CCCC1CC[N-]CC1.CCCC1CC[N-]CC1.[Cl][Co][Cl],T/C,[10],91 % of control and 100 % of control
same,T/C,[11],116 % of control
same,T/C,"dose: 50.0 mg/kg/injection, schedule: Q01DX009 (ip), vehicle: water",112 % of control
same,T/C,"dose: 50.0 mg/kg/injection, schedule: Q04DX003 (ip), vehicle: water",120 % of control
[Cl][Hg][c]1ccc2ccccc2c1,T/C,"dose: 12.5 mg/kg/injection, schedule: Q01DX009 (ip), vehicle: gum acacia",112 % of control
c1ccc2c(Nc3ccc(C4=NCCN4)cc3)nnc(Nc3ccc(C4=NCCN4)cc3)c2c1,T/C,"dose: 19.0 mg/kg/injection, schedule: Q04DX003 (ip), vehicle: saline with Tween-80",119 % of control
same,T/C,"dose: 29.0 mg/kg/injection, schedule: Q04DX003 (ip), vehicle: saline with Tween-80",115 % of control
same,T/C,"dose: 44.0 mg/kg/injection, schedule: Q04DX003 (ip), vehicle: saline with Tween-80",119 % of control
same,T/C,"dose: 66.0 mg/kg/injection, schedule: Q04DX003 (ip), vehicle: saline with Tween-80",154 % of control and 168 % of control
same,T/C,[1],163 % of control
same,T/C,"dose: 150.0 mg/kg/injection, schedule: Q04DX003 (ip), vehicle: saline with Tween-80",195 % of control
Cc1ccc(C)c(C(=O)CCC(=O)O)c1,T/C,[12],108 % of control
same,T/C,[13],110 % of control
same,T/C,[5],91 % of control
same,T/C,[6],99 % of control
same,T/C,[2],91 % of control
same,T/C,[3],100 % of control
Fc1ccc(NC2=NCCN=C(Nc3ccc(F)cc3)SS2)cc1,T/C,[4],96 % of control
same,T/C,[5],87 % of control
same,T/C,[6],102 % of control
O=C(O)/C=C/C(=O)Nc1cccc(Oc2ccc([N+](=O)[O-])cc2[N+](=O)[O-])c1,T/C,"dose: 100.0 mg/kg/injection, schedule: Q01DX009 (ip), vehicle: saline",118 % of control
same,T/C,[14],100 % of control
same,T/C,"dose: 200.0 mg/kg/injection, schedule: Q01DX009 (ip), vehicle: saline",122 % of control
same,T/C,"dose: 200.0 mg/kg/injection, schedule: Q04DX003 (ip), vehicle: other",100 % of control
same,T/C,"dose: 400.0 mg/kg/injection, schedule: Q04DX003 (ip), vehicle: other",91 % of control
CCCCNC(C)(C)CSSSCC(C)(C)NCCCC,T/C,"dose: 6.25 mg/kg/injection, schedule: Q01DX009 (ip), vehicle: other",110 % of control
same,T/C,"dose: 12.5 mg/kg/injection, schedule: Q01DX009 (ip), vehicle: other",86 % of control
same,T/C,"dose: 12.5 mg/kg/injection, schedule: Q04DX003 (ip), vehicle: other",98 % of control
same,T/C,"dose: 25.0 mg/kg/injection, schedule: Q01DX009 (ip), vehicle: other",114 % of control
same,T/C,"dose: 25.0 mg/kg/injection, schedule: Q04DX003 (ip), vehicle: other",117 % of control
same,T/C,"dose: 50.0 mg/kg/injection, schedule: Q01DX009 (ip), vehicle: other",110 % of control
same,T/C,"dose: 50.0 mg/kg/injection, schedule: Q04DX003 (ip), vehicle: other",117 % of control
same,T/C,[14],112 % of control
O=C1NC(c2ccccc2)(c2ccccc2)C(=O)N1CCBr,T/C,"dose: 12.5 mg/kg/injection, schedule: Q01DX009 (ip), vehicle: saline",105 % of control and 121 % of control
same,T/C,"dose: 25.0 mg/kg/injection, schedule: Q01DX009 (ip), vehicle: saline",105 % of control and 113 % of control
same,T/C,"dose: 50.0 mg/kg/injection, schedule: Q01DX009 (ip), vehicle: saline",107 % of control and 113 % of control
same,T/C,"dose: 50.0 mg/kg/injection, schedule: Q04DX003 (ip), vehicle: saline",107 % of control
O=C(Nc1ccccc1)Oc1cccc(/C=N/Sc2ccccc2)c1,T/C,[12],107 % of control
same,T/C,[13],100 % of control
same,T/C,[4],91 % of control
COc1cc(O)c2c(c1)C1=C(C)C(C)(O)OC1=CC2=O (stereo unspecified),T/C,[7],95 % of control
same,T/C,[8],100 % of control
same,T/C,[9],86 % of control
Cc1ccccc1C(Br)C1=CC(C)(C)c2ccccc2C1=O (stereo unspecified),T/C,[15],95 % of control
same,T/C,"dose: 100.0 mg/kg/injection, schedule: Q04DX003 (ip), vehicle: Klucel (hydroxypropylcellulose) (HPC)",100 % of control
same,T/C,[16],100 % of control
same,T/C,"dose: 200.0 mg/kg/injection, schedule: Q04DX003 (ip), vehicle: Klucel (hydroxypropylcellulose) (HPC)",104 % of control
same,T/C,"dose: 400.0 mg/kg/injection, schedule: Q01DX009 (ip), vehicle: Klucel (hydroxypropylcellulose) (HPC)",95 % of control
same,T/C,"dose: 400.0 mg/kg/injection, schedule: Q04DX003 (ip), vehicle: Klucel (hydroxypropylcellulose) (HPC)",100 % of control
S=C(NC1CCCCC1)NC1CCCCC1,T/C,"dose: 50.0 mg/kg/injection, schedule: Q01DX009 (ip), vehicle: Klucel (hydroxypropylcellulose) (HPC)",113 % of control
same,T/C,[7],109 % of control
same,T/C,[15],86 % of control
same,T/C,[8],113 % of control
same,T/C,[16],100 % of control
same,T/C,[9],100 % of control

# Reference: PubChem BioAssay AID328 (DTP/NCI, 2004)
